# Source: US20170232083A1, “METHODS OF DIAGNOSIS AND TREATMENT OF CELIAC DISEASE IN CHILDREN” (priority 2014, published 2017)
# Tested on: PBMC (polyclonal gluten-specific T cells) of paediatric and adult CD patients
# Experiment: IFN-γ ELISpot of PBMC after 3 day oral wheat challenge (SFU, % of maximal peptide response, dominance scores, EC50; Examples 5-6)
# Assay type: cell-based, human
# Details: for Cross-reactive T cell response: following wheat challenge; for IFN-γ ELISpot response: after oral wheat challenge
# [1] = subject I (3-5yrs/6-10yrs part)
# [2] = subject J (3-5yrs/6-10yrs part)
# [3] = subject K (3-5yrs/6-10yrs part)
# [4] = subject V (3-5yrs/6-10yrs part)
# [5] = subject W (3-5yrs/6-10yrs part)
# [6] = subject Y (3-5yrs/6-10yrs part)
# [7] = subject five (3-5yrs/6-10yrs part)
# [8] = subject seven (3-5yrs/6-10yrs part)
# [9] = subject six (3-5yrs/6-10yrs part)
# [10] = subject ten (3-5yrs/6-10yrs part)
# [11] = subject two (3-5yrs/6-10yrs part)
# [12] = patient A, 11-17 yrs, cut-off 10 SFU
# [13] = patient E, H, 11-17 yrs, cut-off 10 SFU
# [14] = patient F, 11-17 yrs, cut-off 10 SFU
# [15] = patient G, 11-17 yrs, cut-off 10 SFU
# [16] = patient H (HLA-DQ2.5 homozygote), 3-5yrs, cut-off 10 SFU
# [17] = patient H, 11-17 yrs, cut-off 10 SFU
# [18] = patient ID not given, 11-17 yrs, cut-off 10 SFU
# [19] = patient N, 3-5yrs, cut-off 10 SFU
# [20] = patient P, 11-17 yrs, cut-off 21.6 SFU
# [21] = patient Q, 11-17 yrs, cut-off 10 SFU
# [22] = patient U, H, 11-17 yrs, cut-off 10 SFU
# [23] = patient V, 6-10 yrs, cut-off 10 SFU
# [24] = patient Y, 6-10 yrs, cut-off 10 SFU
# [25] = patient eleven, 6-10 yrs, cut-off 10 SFU
# [26] = patient four, 3-5yrs, cut-off 10 SFU
# [27] = patient seven, 6-10 yrs, cut-off 10.5 SFU
# [28] = patient ten, 3-5yrs, cut-off 10 SFU
# [29] = patient three, 6-10 yrs, cut-off 10.5 SFU
# [30] = patient twelve, 11-17 yrs, cut-off 10 SFU
# [31] = patient two, 3-5yrs, cut-off 10 SFU
sequence,measurement,setting,value
PFPLQPEQPVPEQPQ,Cross-reactive T cell response,"subject A, 11-17yrs",2 SFU
same,Cross-reactive T cell response,"subject D, 11-17yrs",9 SFU
same,Cross-reactive T cell response,"subject E, 11-17yrs",3 SFU
same,Significant response as a percentage of maximal peptide SFU,"subject F, 11-17yrs",′ (11-20% = ′)
same,Cross-reactive T cell response,"subject F, 11-17yrs",20 SFU
same,Cross-reactive T cell response,"subject G, 11-17yrs",0 SFU
same,Cross-reactive T cell response,subject H,3 SFU
same,Cross-reactive T cell response,[1],1 SFU
same,Cross-reactive T cell response,[2],3 SFU
same,Cross-reactive T cell response,[3],5 SFU
same,Cross-reactive T cell response,"subject P, 11-17yrs",6 SFU
same,Cross-reactive T cell response,"subject Q, 11-17yrs",5 SFU
same,Significant response as a percentage of maximal peptide SFU,"subject T, 11-17yrs",′′ (21-40% = ′′)
same,Cross-reactive T cell response,"subject T, 11-17yrs",21 SFU
same,Significant response as a percentage of maximal peptide SFU,"subject U, 11-17yrs",′ (11-20% = ′)
same,Cross-reactive T cell response,"subject U, 11-17yrs",10 SFU
same,Cross-reactive T cell response,[4],7 SFU
same,Cross-reactive T cell response,[5],11 SFU
same,Cross-reactive T cell response,[6],2 SFU
same,Cross-reactive T cell response,[7],1 SFU
same,Cross-reactive T cell response,"subject nine, 11-17yrs",1 SFU
same,Cross-reactive T cell response,[8],1 SFU
same,Cross-reactive T cell response,[9],3 SFU
same,Significant response as a percentage of maximal peptide SFU,subject ten,+ (>70% = +)
same,Cross-reactive T cell response,[10],11 SFU
same,Cross-reactive T cell response,[11],5 SFU
PFPQQPQQPFPQP,IFN-γ ELISpot response,[12],0 SFU
same,IFN-γ ELISpot response,[13],0 SFU
same,IFN-γ ELISpot response,[14],1 SFU
same,IFN-γ ELISpot response,[15],0 SFU
same,IFN-γ ELISpot response,[16],4 SFU
same,IFN-γ ELISpot response,[17],2 SFU
same,IFN-γ ELISpot response,[18],0 SFU
same,IFN-γ ELISpot response,[19],2 SFU
same,IFN-γ ELISpot response,[20],14 SFU
same,IFN-γ ELISpot response,[21],9 SFU
same,IFN-γ ELISpot response,[22],2 SFU
same,IFN-γ ELISpot response,[23],3 SFU
same,IFN-γ ELISpot response,[24],6 SFU
same,IFN-γ ELISpot response,[25],3 SFU
same,IFN-γ ELISpot response,[26],0 SFU
same,IFN-γ ELISpot response,[27],1 SFU
same,IFN-γ ELISpot response,[28],12 SFU
same,Significant response as percentage of maximal peptide SFU,"patient ten, max peptide 14.5 SFU",+ (>70% = +)
same,IFN-γ ELISpot response,[29],5 SFU
same,IFN-γ ELISpot response,[30],2 SFU
same,IFN-γ ELISpot response,[31],3 SFU
PIPQQPQQPFPLQ,IFN-γ ELISpot response,[12],6 SFU
same,IFN-γ ELISpot response,[13],5 SFU
same,IFN-γ ELISpot response,[14],5 SFU
same,IFN-γ ELISpot response,[15],2 SFU
same,IFN-γ ELISpot response,[16],0 SFU
same,IFN-γ ELISpot response,[17],10 SFU
same,Significant response as percentage of maximal peptide SFU,"patient H, max peptide 17 SFU",′′′ (41-70% = ′′′)
same,IFN-γ ELISpot response,[18],3 SFU
same,Significant response as percentage of maximal peptide SFU,"patient II, max peptide 15 SFU",+ (>70% = +)
same,IFN-γ ELISpot response,[19],1 SFU
same,IFN-γ ELISpot response,[20],9 SFU
same,IFN-γ ELISpot response,[21],13 SFU
same,Significant response as percentage of maximal peptide SFU,"patient Q, max peptide 97 SFU",′ (11-20% = ′)
same,IFN-γ ELISpot response,[22],4 SFU
same,IFN-γ ELISpot response,[23],9 SFU
same,IFN-γ ELISpot response,[24],5 SFU
same,IFN-γ ELISpot response,[25],4 SFU
same,IFN-γ ELISpot response,[26],1 SFU
same,IFN-γ ELISpot response,[27],14 SFU
same,Significant response as percentage of maximal peptide SFU,"patient seven, max peptide 27 SFU",′′′ (41-70% = ′′′)
same,IFN-γ ELISpot response,[28],7 SFU
same,IFN-γ ELISpot response,[29],1 SFU
same,IFN-γ ELISpot response,[30],1 SFU
same,IFN-γ ELISpot response,[31],2 SFU
PQQPQQSFPQQQQPA,IFN-γ ELISpot response,[15],11 SFU
same,Significant response as percentage of maximal peptide SFU,"patient G, max peptide 15 SFU",+ (>70% = +)
same,IFN-γ ELISpot response,[17],1 SFU
same,IFN-γ ELISpot response,[18],3 SFU
same,Significant response as percentage of maximal peptide SFU,"patient K, max peptide 53 SFU",′′ (21-40% = ′′)
same,IFN-γ ELISpot response,[20],4 SFU
same,IFN-γ ELISpot response,[21],1 SFU
same,IFN-γ ELISpot response,[22],2 SFU
same,IFN-γ ELISpot response,[23],10 SFU
same,Significant response as percentage of maximal peptide SFU,"patient V, max peptide 35 SFU",′′ (21-40% = ′′)
same,IFN-γ ELISpot response,[24],3 SFU
same,IFN-γ ELISpot response,[25],0 SFU
same,IFN-γ ELISpot response,[26],0 SFU
same,IFN-γ ELISpot response,[27],10 SFU
same,IFN-γ ELISpot response,[28],7 SFU
same,IFN-γ ELISpot response,[29],1 SFU
same,IFN-γ ELISpot response,[31],0 SFU
QEFPQPEQPFPQQ,Cross-reactive T cell response,"subject A, 11-17yrs",4 SFU
same,Significant response as a percentage of maximal peptide SFU,"subject D, 11-17yrs",′′′ (41-70% = ′′′)
same,Cross-reactive T cell response,"subject D, 11-17yrs",15 SFU
same,Significant response as a percentage of maximal peptide SFU,"subject E, 11-17yrs",′ (11-20% = ′)
same,Cross-reactive T cell response,"subject E, 11-17yrs",30 SFU
same,Significant response as a percentage of maximal peptide SFU,"subject F, 11-17yrs",′′ (21-40% = ′′)
same,Cross-reactive T cell response,"subject F, 11-17yrs",38 SFU
same,Cross-reactive T cell response,"subject G, 11-17yrs",4 SFU
same,Cross-reactive T cell response,subject H,1 SFU
same,Cross-reactive T cell response,[1],8 SFU
same,Significant response as a percentage of maximal peptide SFU,subject J,′′′ (41-70% = ′′′)
same,Cross-reactive T cell response,[2],93 SFU
same,Significant response as a percentage of maximal peptide SFU,subject K,′′ (21-40% = ′′)
same,Cross-reactive T cell response,[3],21 SFU
same,Cross-reactive T cell response,"subject P, 11-17yrs",7 SFU
same,Significant response as a percentage of maximal peptide SFU,"subject Q, 11-17yrs",′′′ (41-70% = ′′′)
same,Cross-reactive T cell response,"subject Q, 11-17yrs",44 SFU
same,Significant response as a percentage of maximal peptide SFU,"subject T, 11-17yrs",+ (>70% = +)
same,Cross-reactive T cell response,"subject T, 11-17yrs",67 SFU
same,Significant response as a percentage of maximal peptide SFU,"subject U, 11-17yrs",′′ (21-40% = ′′)
same,Cross-reactive T cell response,"subject U, 11-17yrs",23 SFU
same,Significant response as a percentage of maximal peptide SFU,subject V,′′ (21-40% = ′′)
same,Cross-reactive T cell response,[4],11 SFU
same,Cross-reactive T cell response,[5],3 SFU
same,Cross-reactive T cell response,[6],2 SFU
same,Significant response as a percentage of maximal peptide SFU,subject five,+ (>70% = +)
same,Cross-reactive T cell response,[7],36 SFU
same,Cross-reactive T cell response,"subject nine, 11-17yrs",1 SFU
same,Cross-reactive T cell response,[8],2 SFU
same,Cross-reactive T cell response,[9],6 SFU
same,Cross-reactive T cell response,[10],8 SFU
same,Significant response as a percentage of maximal peptide SFU,subject two,′′′ (41-70% = ′′′)
same,Cross-reactive T cell response,[11],30 SFU
QFIQPEQPFPQQ,IFN-γ ELISpot response,[12],0 SFU
same,IFN-γ ELISpot response,[13],31 SFU
same,Significant response as percentage of maximal peptide SFU,"patient E, max peptide 224 SFU",′ (11-20% = ′)
same,IFN-γ ELISpot response,[14],28 SFU
same,Significant response as percentage of maximal peptide SFU,"patient F, max peptide 178 SFU",′ (11-20% = ′)
same,IFN-γ ELISpot response,[15],2 SFU
same,IFN-γ ELISpot response,[16],8 SFU
same,IFN-γ ELISpot response,[17],3 SFU
same,IFN-γ ELISpot response,[18],21 SFU
same,Significant response as percentage of maximal peptide SFU,"patient ID not given, max peptide 95 SFU",′′ (21-40% = ′′)
same,Significant response as percentage of maximal peptide SFU,"patient II, max peptide 15 SFU",+ (>70% = +)
same,Significant response as percentage of maximal peptide SFU,"patient J, max peptide 196 SFU",′ (11-20% = ′)
same,Significant response as percentage of maximal peptide SFU,"patient K, max peptide 53 SFU",′′ (21-40% = ′′)
same,IFN-γ ELISpot response,[19],6 SFU
same,IFN-γ ELISpot response,[20],8 SFU
same,IFN-γ ELISpot response,[21],25 SFU
same,Significant response as percentage of maximal peptide SFU,"patient Q, max peptide 97 SFU",′′ (21-40% = ′′)
same,IFN-γ ELISpot response,[22],13 SFU
same,Significant response as percentage of maximal peptide SFU,"patient U, max peptide 81 SFU",′ (11-20% = ′)
same,IFN-γ ELISpot response,[23],19 SFU
same,Significant response as percentage of maximal peptide SFU,"patient V, max peptide 35 SFU",′′′ (41-70% = ′′′)
same,IFN-γ ELISpot response,[24],3 SFU
same,IFN-γ ELISpot response,[25],0 SFU
same,IFN-γ ELISpot response,[26],6 SFU
same,IFN-γ ELISpot response,[27],8 SFU
same,IFN-γ ELISpot response,[28],6 SFU
same,IFN-γ ELISpot response,[29],30 SFU
same,IFN-γ ELISpot response,[30],6 SFU
same,IFN-γ ELISpot response,[31],7 SFU
QLFPLPEQPFPQP,Cross-reactive T cell response,"subject A, 11-17yrs",2 SFU
same,Cross-reactive T cell response,"subject D, 11-17yrs",2 SFU
same,Cross-reactive T cell response,"subject E, 11-17yrs",2 SFU
same,Cross-reactive T cell response,"subject F, 11-17yrs",2 SFU
same,Cross-reactive T cell response,"subject G, 11-17yrs",0 SFU
same,Cross-reactive T cell response,subject H,0 SFU
same,Cross-reactive T cell response,[1],1 SFU
same,Significant response as a percentage of maximal peptide SFU,subject J,′ (11-20% = ′)
same,Cross-reactive T cell response,[2],26 SFU
same,Cross-reactive T cell response,[3],5 SFU
same,Cross-reactive T cell response,"subject P, 11-17yrs",11 SFU
same,Significant response as a percentage of maximal peptide SFU,"subject Q, 11-17yrs",′ (11-20% = ′)
same,Cross-reactive T cell response,"subject Q, 11-17yrs",13 SFU
same,Significant response as a percentage of maximal peptide SFU,"subject T, 11-17yrs",′ (11-20% = ′)
same,Cross-reactive T cell response,"subject T, 11-17yrs",13 SFU
same,Cross-reactive T cell response,"subject U, 11-17yrs",9 SFU
same,Cross-reactive T cell response,[4],4 SFU
same,Cross-reactive T cell response,[5],4 SFU
same,Cross-reactive T cell response,[6],2 SFU
same,Cross-reactive T cell response,[7],7 SFU
same,Cross-reactive T cell response,"subject nine, 11-17yrs",1 SFU
same,Cross-reactive T cell response,[8],1 SFU
same,Cross-reactive T cell response,[9],0 SFU
same,Significant response as a percentage of maximal peptide SFU,subject ten,+ (>70% = +)
same,Cross-reactive T cell response,[10],14 SFU
same,Cross-reactive T cell response,[11],3 SFU
